Measurements published in patent US12084422B2, “Phenyl-n-quinoline derivatives for treating a RNA virus infection” (ABIVAX, priority 2018, dated 2024).

Tests used:
RSV A2 = experiment: Screening for RSV inhibition using Viral ToxGlo assay in HEp-2 cells; assay type: cell-based; details: human respiratory syncytial virus, HEp-2, 72 h
Method: Protocol for Screening Antiviral Compounds for RSV Inhibition and Cytotoxicity Using Viral ToxGlo Assay
HEp-2 cells were maintained in Eagle's minimum essential medium (EMEM) with Earle's BSS adjusted to contain 2 mM L-glutamine, 10% fetal bovine serum, 100 U/ml penicillin and 100 μg/ml streptomycin. For the purposes of the screening assay they were grown to 90% confluency, trypsinized and recovered. The trypsin was neutralised with cell culture media and cells were centrifuged at 150×g for 5 minutes before discarding the supernatant and resuspending cell pellet in assay media (EMEM with Earle's BSS adjusted to contain 2 mM L-glutamine, 2% fetal bovine serum and 100 U/ml penicillin and 100 μg/ml streptomycin). The cells were seeded into white clear-bottomed cell culture plates at a density of 1.5×10^4 cells/well in 50 μl and 4×10^3 cells/well in 25 μl for 96 well plates and 384 well plates respectively. For the media/background control column assay media only was added. Cell plates were placed in a humid chamber and incubated overnight at 37° C./5% CO2. After overnight incubation cells were checked for confluency and healthy appearance.
Test articles were made up at 10× test concentration in a maximum DMSO concentration of 10% (final assay concentration maximal 1% DMSO) and added to the cell plates in volumes of 10 μl for 96 well plates and 5 μl for 384 well plates. For cell control and virus control wells the test article solvent only was added. Virus or assay media for cytotoxicity test wells and media/cell control wells was added immediately after test articles at an MOI of 0.5, 40 or 20 μl for 96 and 384 well plates respectively. Virus suspension was prepared by thawing RSV A2 frozen stocks and diluting to the required concentration of plaque forming units in assay media on ice.
(§1) Cell plates were further incubated inside a humid chamber for 72 h p.i at 37° C./5% CO2. After the incubation period cells were observed under the microscope to check for characteristic cytopathic effect in virus control wells and healthy cells in the cell control wells. After plates were adjusted to room temperature 20/40 μl Viral ToxGlo (Promega) was added to each well of the 384/96 well cell plates. Plates were incubated at room temperature, protected from light on a plate rocker for 20 minutes before measuring the luminescence on a spectrophotometer (Biotek Synergy HTX).
RSV inhibition was calculated as percentage of cytopathic effect inhibition relative to the virus control and cytotoxicity as percentage of cell survival relative to cell control wells. This allowed EC50 values to be calculated for each test article where a virus inhibition or cytotoxic dose response was identified. EC50 values ranging between 0.001 µM and 5 μM could thus be determined for compounds 1, 6, 10, 13, 28, 38, 43, 47, 48, 49, 50, 51, 52, 53, 54, 55, 56 and 57.

[1] = system: Chikungunya Virus (CHIKV) strain LR2006-OPY1 with GFP modification (CHIK 5'LR); experiment: Inhibition of Chikungunya virus (CHIKV) production in infected HEK293T cell line (GFP fluorescence); assay type: cell-based; details: HEK-293T, infected HEK293T cells; for inhibition at 1 µM: compounds at 1 μM, MOI 0.1, 22 h, values above 100 lowered to 100, read-out: % CHIKV Inhibition Mean (n = 2); for IC50: second round of experiments
Method: The ability of the compounds to inhibit viral replication was assessed with an experiment in which infected cells were treated by compounds of formula (I) at 1 μM. As a positive control for inhibition of Chikungunya, Ribavirin was used. Toxicity of the compounds was assessed in parallel.
Human embryonic kidney cells 293T (HEK293T, CRL-11268) were maintained in Dulbecco's modified Eagle's Medium (DMEM, 31966-021, Thermo Fisher Scientific) supplemented with 10% of fetal bovine serum (FBS), penicillin and streptomycin. After removal of the medium, cells were washed with a Ca^2+- and Mg^2+-free salt solution to remove all traces of serum. After aspiration of wash solution, cells were dissociated with 0.25% Trypsin-EDTA solution and incubated 30 s at least in 37° ° C. incubator. Concentration of cell suspension was determined by an automatic cell counter (EVE, NanoEntek) and, if needed, adjusted to 0.33×10^6 cells/mL with DMEM medium supplemented with 10% FBS.
100 μL of the cell suspension were dispatched in a ViewPlate-96 Black (6005182, PerkinElmer) and in a transparent 96-well cell culture plate (655180, Greiner bio-one). After an incubation for 24 h at 37° C. under 5% of CO2, compounds were added at the proper concentration.
An intermediate dilution was prepared with DMSO (D8418, Sigma) at 2 mM in a 96-well V-bottom microplate from the stock solution:
Mix 1 μL of the 50 mM stock library in 25 μL of DMSO.
Mix 2 μL of the 25 mM stock library in 25 μL of DMSO.
An intermediate dilution was prepared with DMSO (D8418, Sigma) at 25 mM in a 96-well V-bottom microplate from the stock solution:
Mix 2 μL of the 50 mM stock library in 2 μL of DMSO.
Serial dilutions were performed in 2 μL of DMSO 13 times to reach 0.0015 mM as follows in table III:
For both screen and determination of IC50 1 μL of each solution was added in a 1 mL Masterblock 96 wells (Greiner bio-one, 780261) containing 1 mL of DMEM medium. As a positive control, 5 μL of a 80 mM Ribavirin solution (R9644, Sigma) is added to 1 mL of DMEM. On the other hand, DMSO is used as a negative control.
[…]. Vector Borne Zoonotic Dis. 2006; 6(4)). This modified virus was used to infect cells at MOI 0.1. […].
Medium was removed after 22 h at 37° ° C. under 5% of CO2 and cells were washed as described above. 60 μL of RIPA buffer (50 mM Tris-HCl pH8, 100 mM NaCl, 1 mM MgCl2, 1% Triton X-100) was added to cells and incubated for at least 20 min before reading fluorescence signal. Pierce 660 nm Protein Assay Reagent (22660, Thermo scientific) was used to normalize fluorescence signal by protein quantity.
A first round of experiments has been performed wherein the results are expressed as inhibition percentage, which is calculated as follows, through the following steps:
1. Fluorescence intensity (FI) 509 nm/Absorbance 660 nm (A660)=A
This ratio allows considering the infection (GFP virus) to the protein amount.
2. A′=A—background noise of non-infected plate,
3. B=Fluorescence intensity (FI)/Absorbance 660 nm (A660) of infected but non treated plates,
4. C=A′/B which is then converted as the percentage of infection after treatment, compared to non-treated sample, and subsequently as the […]. For instance, a value of 100 in Table IV here below means that, after treatment, the signal attributed to GFP fluorescence is abolished, which is correlated to the absence of infection.
This value corresponds to the inhibition's percentage.
The following Table IV encompasses said C′ value for some compounds as calculated above with a mean of 2 experiments, and the corresponding standard deviation.
Some values were originally above 100. In these cases, the value has been lowered to 100. This means that some molecules also have an impact on the viability of the cells. In other words, the A value may be lower than the background noise.
Moreover, for each measure, the test was performed with Ribavirin as control. The value of the inhibition percentage was checked, giving 100%.

DENV-2 strain 16681 = experiment: Screening for DENV-2 inhibition using Viral ToxGlo assay in A549 cells; assay type: cell-based, Dengue 2 virus; details: Dengue virus, DENV2, A549, 120 h, read-out: % DENV-2 Inhibition Mean (n = 3)
Method: Protocol for Screening Antiviral Compounds for DENV-2 Inhibition and Cytotoxicity Using Viral ToxGlo Assay
A549 cells were maintained in Dulbecco's Modified Eagle Medium (DMEM) supplemented with 10% fetal bovine serum, 100 U/ml penicillin and 100 μg/ml streptomycin. For the purposes of the screening assay they were grown to 90% confluency, trypsinized and recovered. The trypsin was neutralised with cell culture media and cells were centrifuged at 150×g for 5 minutes before discarding the supernatant and resuspending cell pellet in assay media (DMEM supplemented with 2% fetal bovine serum and 100 U/ml penicillin and 100 μg/ml streptomycin). The cells were seeded into 96-well white clear-bottomed cell culture plates at a density of 1.0×10^4 cells/well in 50 μl. For the media/background control column assay media only was added. Cell plates were placed in a humid chamber and incubated overnight at 37° C./5% CO2. After overnight incubation cells were checked for confluency and healthy appearance.
Test compounds were prepared at a final concentration of 10 μM, in a maximum DMSO concentration of 1% (final assay concentration maximal 0.1% DMSO) and added to the cell plates in volumes of 10 μl. For cell control and virus control wells the test article solvent only was added. As a positive inhibition control, 7-Deaza-2′-C-methyladenosine was added at 100 μM in 3 wells. Virus (DENV-2 strain 16681) or assay media for cytotoxicity test wells and media/cell control wells was added immediately after test articles at an MOI of 0.5, 40 for 96 well plates respectively. Virus suspension was prepared by thawing DENV-2 frozen stocks and diluting to the required concentration of plaque forming units in assay media.
as §1, with “5 days” for “72 h”, “20” for “20/40”, “96-well” for “384/96 well”, “temperature” for “temperature, protected from light on a plate rocker”, “5” for “20”, “(Envision, PerkinElmer).” for “(Biotek Synergy HTX).”
DENV-2 inhibition was calculated as percentage of cytopathic effect inhibition relative to the virus control and cytotoxicity as percentage of cell survival relative to cell control wells.

Row | Structure (SMILES) | EC50 (RSV A2) [nM] | inhibition at 1 µM [1] [%] | IC50 [1] [nM] | inhibition at 10 µM (DENV-2 strain 16681) [%]
1 | Cc1cc(OC(F)(F)F)ccc1Nc1ccc2cccc(Cl)c2n1 [Compound 1, 8-chloro-N-(2-methyl-4-(trifluoromethoxy)phenyl)quinolin-2-amine] | 3310 | 97 |  | 
2 | CCCc1cc(OC(F)(F)F)ccc1Nc1ccc2cccc(Cl)c2n1 [Compound 6, 8-chloro-N-(2-propyl-4-(trifluoromethoxy)phenyl)quinolin-2-amine] | 1210 | 100 | 1 to 200 | 
3 | Cc1ccc(Oc2ccc(Nc3ccc4ccccc4n3)cc2)cc1 [Compound 28, N-(4-(p-tolyloxy)phenyl)quinolin-2-amine] | 1780 |  |  | 
4 | Cc1cc(Oc2ccccc2F)ccc1Nc1ccc2ccccc2n1 [Compound 38, N-(4-(2-fluorophenoxy)-2-methylphenyl)quinolin-2-amine] | 200 | 98 | 1 to 200 | 
5 | Clc1cccc2ccc(Nc3ccc(OC4CCCC4)cc3C3CC3)nc12 [Compound 44, 8-chloro-N-(4-(cyclopentyloxy)-2-cyclopropylphenyl)quinolin-2-amine] |  |  | 1 to 200 | 94
6 | Fc1ccccc1Oc1ccc(Nc2ccc3ccccc3n2)c(C2CC2)c1 [Compound 46, N-(2-cyclopropyl-4-(2-fluorophenoxy)phenyl)quinolin-2-amine] |  |  | 1 to 200 | 104
7 | Cc1cc(OCc2ccccc2)ccc1Nc1ccc2cccc(Cl)c2n1 [Compound 47, N-(4-(benzyloxy)-2-methylphenyl)-8-chloroquinolin-2-amine] | 420 |  |  | 82
8 | Cc1cc(OC(C)C)c(C2CC2)cc1Nc1ccc2cccc(Cl)c2n1 [Compound 48, 8-chloro-N-(5-cyclopropyl-4-isopropoxy-2-methylphenyl)quinolin-2-amine] | 360 |  |  | 
9 | Cc1c(Nc2ccc3cccc(Cl)c3n2)cccc1OC(C)C [Compound 49, 8-chloro-N-(3-isopropoxy-2-methylphenyl)quinolin-2-amine] | 513 |  |  | 
10 | Cc1c(Nc2ccc3cccc(Cl)c3n2)cccc1OCc1ccccc1 [Compound 50, N-(3-(benzyloxy)-2-methylphenyl)-8-chloroquinolin-2-amine] | 283 |  |  | 
11 | COc1ccc(Oc2ccc(Nc3ccc4ccccc4n3)c(C)c2)cc1 [Compound 51, N-(4-(4-methoxyphenoxy)-2-methylphenyl)quinolin-2-amine] | 412 |  |  | 
12 | COc1ccc(Oc2ccc(Nc3ccc4ccccc4n3)c(C3CC3)c2)c(F)c1 [Compound 52, N-(2-cyclopropyl-4-(2-fluoro-4-methoxyphenoxy)phenyl)quinolin-2-amine] | 344 |  |  | 
13 | Cc1cc(Oc2ccc(O)cc2F)ccc1Nc1ccc2ccccc2n1 [Compound 53, 3-fluoro-4-(3-methyl-4-(quinolin-2-ylamino)phenoxy)phenol] | 196 |  |  | 
14 | Cc1cc(Oc2cccc3ccccc23)ccc1Nc1ccc2cccc(Cl)c2n1 [Compound 54, 8-chloro-N-(2-methyl-4-(naphthalen-1-yloxy)phenyl)quinolin-2-amine] | 94 |  |  | 69
15 | Cc1c(Nc2ccc3cccc(Cl)c3n2)cccc1Oc1ccccc1 [Compound 55, 8-chloro-N-(2-methyl-3-phenoxyphenyl)quinolin-2-amine] | 192 |  |  | 
16 | Cc1cc(Oc2ccccc2)ccc1Nc1ccc2cccc(Cl)c2n1 [Compound 56, 8-chloro-N-(2-methyl-4-phenoxyphenyl)quinolin-2-amine 2,2,2-trifluoroacetate] | 132 |  |  | 76
17 | Cc1cc(Oc2ccc3ccccc3c2)ccc1Nc1ccc2cccc(Cl)c2n1 [Compound 57, 8-chloro-N-(2-methyl-4-(naphthalen-2-yloxy)phenyl)quinolin-2-amine] | 473 |  |  | 
